Converted amounts (≈) assume the structure as drawn. Where two headings read alike, the source gives them in different places.
What was measured:
[1] = test system: Staphylococcus aureus (NCTC 10649); assay: In-vivo acute mouse protection assay; set-up: species or system Staphylococcus aureus; female Swiss albino mice; settings: Staphylococcus aureus, dosed 1 and 5 h post-infection, observed 7 days, read-out: ED50
Method: (§1) An acute mouse protection test was conducted on ten mice with each of three concentrations of selected compounds of the invention. Each concentration was a four-fold dilution of the previous concentration. The initial concentration will vary with the microorganism with which the mouse is challenged.
(§2) The acute mouse protection test was conducted on female, Swiss albino mice, 18-20 grams in weight. […] To check the potency of the inoculum, a titration of the indicated test organism was carried out in control animals. The titration determines the LD50 for a particular microorganism. The treatment groups of animals were dosed orally, by gavage, or subcutaneously with the test compounds at 1 and 5 hours post-infection and observed for 7 days. The ED50 were calculated using the mortality data collected.

[2] = test system: Staphylococcus aureus A5177; assay: In-vitro antimicrobial activity primary screen (agar dilution MIC); assay type: cell-based; settings: Staphylococcus aureus, A5177, 24 h, Staphylococcus aureus A5177; BHI agar, 20-24 h
Method in brief: (§3)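 MIC read after 20-24 hours at 35 37° C as the lowest compound level with no growth, only haze or sparse colonies relative to drug-free growth control. Plates were BHI agar carrying serial compound dilutions, replicator-inoculated at 1:100, or 1:10 for slow-growing strains.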

[3] = test system: Streptococcus agalactiae CMX 508; assay: as above; assay type: cell-based; settings: 20-24 h
Method in brief: as §3

[4] = test system: Streptococcus pyrogenes EES61; assay: as above; assay type: cell-based; settings: BHI agar, 20-24 h, read-out: MIC
Method in brief: as §3

Escherichia coli H560 = assay: as above; assay type: cell-based; settings: Escherichia coli, H560, 24 h, Escherichia coli H560; BHI agar, 20-24 h
Method in brief: as §3

[5] = test system: Enterococcus faecium ATCC 8043; assay: as above; assay type: cell-based
Method in brief: as §3

[6] = test system: Staphylococcus epidermidis 3519; assay: as above; assay type: cell-based; settings: BHI agar, 20-24 h, read-out: MIC
Method in brief: as §3

[7] = test system: Micrococcus luteus ATCC 4698; assay: as above; assay type: cell-based; settings: 20-24 h
Method in brief: as §3

Escherichia coli SS = assay: as above; assay type: cell-based; settings: Escherichia coli, 24 h, BHI agar, 20-24 h
Method in brief: as §3

[8] = test system: Staphylococcus aureus 45 RAR2; assay: as above; assay type: cell-based; settings: Staphylococcus aureus, 45RAR2, 24 h, BHI agar, 20-24 h
Method in brief: as §3

[9] = test system: Streptococcus bovis A5169; assay: as above; assay type: cell-based; settings: Streptococcus equinus, BHI agar, 20-24 h
Method in brief: as §3

[10] = test system: Pseudomonas aeruginosa K799/WT; assay: as above; assay type: cell-based; settings: Pseudomonas aeruginosa, K799/WT, 24 h
Method in brief: as §3

Escherichia coli DC-2 = assay: as above; assay type: cell-based; settings: Escherichia coli, DC2, 24 h, Escherichia coli DC-2; BHI agar, 20-24 h
Method in brief: as §3

Staphylococcus aureus 45 = assay: as above; assay type: cell-based; settings: BHI agar, 20-24 h, read-out: MIC
Method in brief: as §3

[11] = test system: Micrococcus luteus ATCC 9341; assay: as above; assay type: cell-based; settings: Micrococcus luteus, ATCC9341, 24 h, BHI agar, 20-24 h
Method in brief: as §3

[12] = test system: Pseudomonas aeruginosa A5007; assay: as above; assay type: cell-based; settings: Pseudomonas aeruginosa, A5007, 24 h
Method in brief: as §3

[13] = test system: Enterobacter aerogenes ATCC 13048; assay: as above; assay type: cell-based; settings: Klebsiella aerogenes, ATCC13048, 24 h
Method in brief: as §3

Pseudomonas cepacia 2961 = assay: as above; assay type: cell-based; settings: Burkholderia cepacia, 2961, 24 h, BHI agar, 20-24 h
Method in brief: as §3

[14] = test system: Providencia stuartii CMX 640; assay: as above; assay type: cell-based; settings: Providencia stuartii, CMX640, 24 h
Method in brief: as §3

[15] = test system: Pseudomonas aeruginosa BMH10; assay: as above; assay type: cell-based; settings: Pseudomonas aeruginosa, BMH10, 24 h, BHI agar, 20-24 h
Method in brief: as §3

[16] = test system: Pseudomonas aeruginosa K799/61; assay: as above; assay type: cell-based; settings: Pseudomonas aeruginosa K799/61, BHI agar, 20-24 h
Method in brief: as §3

Escherichia coli JUHL = assay: as above; assay type: cell-based; settings: Escherichia coli, 24 h, Escherichia coli JUHL; BHI agar, 20-24 h
Method in brief: as §3

[17] = test system: Staphylococcus aureus ATCC 6538P; assay: as above; assay type: cell-based; settings: Staphylococcus aureus, ATCC6538P, 24 h, BHI agar, 20-24 h
Method in brief: as §3

[18] = test system: Streptococcus pyrogenes 2548 INDUC; assay: as above; assay type: cell-based; settings: BHI agar, 20-24 h
Method in brief: as §3

[19] = test system: Streptococcus pneumoniae (ATCC 6303); assay: In-vivo acute mouse protection assay; set-up: species or system Streptococcus pneumoniae; female Swiss albino mice; settings: dosed 1 and 5 h post-infection, observed 7 days
Method: as §1, §2

Acinetobacter SP CMX 669 = assay: In-vitro antimicrobial activity primary screen (agar dilution MIC); assay type: cell-based; settings: Acinetobacter, SPCMX669, 24 h, Acinetobacter SP CMX 669; BHI agar, 20-24 h
Method in brief: as §3

[20] = test system: Haemophilus influenzae (ATCC 43095); assay: In-vivo acute mouse protection assay; set-up: species or system Haemophilus influenzae; female Swiss albino mice; settings: dosed 1 and 5 h post-infection, observed 7 days, read-out: ED50
Method: as §1, §2

[21] = NCTC10649, sc, 168 h, subcutaneous
[22] = ATCC6303, 168 h, oral, read-out: ED50

| SMILES | ED50 ([1]; NCTC10649, 168 h, oral) [mg/kg] | ED50 [1, 21] [mg/kg] | MIC [2] [µg/mL] | MIC [4] [µg/mL] | MIC (Escherichia coli H560) [µg/mL] | MIC [6] [µg/mL] | MIC (Escherichia coli SS) [µg/mL] | MIC [8] [µg/mL] | MIC (Escherichia coli DC-2) [µg/mL] | MIC (Staphylococcus aureus 45) [µg/mL] | MIC [11] [µg/mL] | MIC [12] [µg/mL] | MIC (Pseudomonas cepacia 2961) [µg/mL] | MIC [14] [µg/mL] | MIC [15] [µg/mL] | MIC (Escherichia coli JUHL) [µg/mL] | MIC [17] [µg/mL] | ED50 [19, 22] [mg/kg] | other results |
| --- | --- | --- | --- | --- | --- | --- | --- | --- | --- | --- | --- | --- | --- | --- | --- | --- | --- | --- | --- |
| CC[C@H]1OC(=O)[C@H](C)[C@@H](O[C@H]2C[C@@](C)(OC)[C@H](N)[C@H](C)O2)[C@H](C)[C@@H](O[C@@H]2O[C@H](C)C[C@H](N(C)C)[C@H]2O)[C@](C)(O)C[C@@H](C)[C@@H]2O[C@@]1(C)[C@@H](O)[C@H]2C [Example 13, (4"R,9S,11S) 4"-Amino-9-deoxo-4",12-dideoxy-9,12-epoxyerythromycin A] | 126 | 39.6 | 0.78 (≈ 1.09 µM) | < 0.005 | 12.5 (≈ 17.4 µM) | 0.2 (≈ 0.279 µM) | 0.2 (≈ 0.279 µM) | 0.2 (≈ 0.279 µM) | 50 (≈ 69.7 µM) | 0.2 (≈ 0.279 µM) | 0.01 (≈ 0.0139 µM) | > 100 | > 100 | > 100 | 100 (≈ 139 µM) | 50 (≈ 69.7 µM) | 0.2 (≈ 0.279 µM) | 84.8 | MIC ([3]; CMX508, BHI agar, read-out: MIC): 0.02 µg/mL (≈ 0.0279 µM); MIC ([5]; ATCC8043, Enterococcus faecium ATCC 8043, BHI agar, 20-24 h, read-out: MIC): 0.05 µg/mL (≈ 0.0697 µM); MIC ([7]; ATCC4698, BHI agar, read-out: MIC): 0.05 µg/mL (≈ 0.0697 µM); MIC ([9]; read-out: MIC): 0.01 µg/mL (≈ 0.0139 µM); MIC [10]: 100 µg/mL (≈ 139 µM); MIC [13]: 100 µg/mL (≈ 139 µM); MIC ([16]; Pseudomonas aeruginosa, K799/61, 24 h): 1.56 µg/mL (≈ 2.18 µM); MIC ([18]; read-out: MIC): 0.78 µg/mL (≈ 1.09 µM); ED50 ([19]; ATCC6303, sc, 168 h, subcutaneous): 4 mg/kg |
| CC[C@H]1OC(=O)[C@H](C)[C@@H](O[C@H]2C[C@@](C)(OC)[C@@H](O)[C@H](C)O2)[C@H](C)[C@@H](O[C@@H]2O[C@H](C)C[C@H](N(C)C)[C@H]2O)[C@](C)(O)C[C@@H](C)[C@@H]2O[C@@]1(C)[C@@H](O)[C@H]2C [Example 4, (9S,11S)-9-Deoxo-12-deoxy-9,12-epoxyerythromycin A] | 55 | 22.6 | 3.1 (≈ 4.32 µM) | 0.01 (≈ 0.0139 µM) | 25 (≈ 34.8 µM) | 0.2 (≈ 0.279 µM) | 0.2 (≈ 0.279 µM) | 0.39 (≈ 0.543 µM) | 50 (≈ 69.6 µM) | 0.2 (≈ 0.279 µM) | 0.05 (≈ 0.0696 µM) | > 100 | > 100 | > 100 | 50 (≈ 69.6 µM) | 25 (≈ 34.8 µM) | 0.2 (≈ 0.279 µM) | 20.4 | MIC ([3]; Streptococcus agalactiae, CMX508, 24 h, BHI agar): 0.05 µg/mL (≈ 0.0696 µM); MIC ([5]; Enterococcus faecium, ATCC8043, 24 h): 0.1 µg/mL (≈ 0.139 µM); MIC ([7]; Micrococcus luteus, ATCC4698, 24 h, BHI agar): 0.1 µg/mL (≈ 0.139 µM); MIC ([9]; A5169, 24 h): 0.02 µg/mL (≈ 0.0279 µM); MIC ([10]; Pseudomonas aeruginosa K799/WT, BHI agar, 20-24 h): 100 µg/mL (≈ 139 µM); MIC (Acinetobacter SP CMX 669): 3.1 µg/mL (≈ 4.32 µM); MIC ([13]; Enterobacter aerogenes ATCC 13048, BHI agar, 20-24 h): 50 µg/mL (≈ 69.6 µM); MIC ([16]; read-out: MIC): 0.39 µg/mL (≈ 0.543 µM); MIC ([18]; Streptococcus, 2548INDUC, 24 h): 3.1 µg/mL (≈ 4.32 µM); ED50 ([19]; ATCC6303, sc, 168 h, subcutaneous, read-out: ED50): 1.3 mg/kg; ED50 ([20]; ATCC43095, 168 h, oral): 238 mg/kg; ED50 ([20]; ATCC43095, sc, 168 h, subcutaneous): 11.3 mg/kg |

— US5288709A, “Erythromycin derivatives” (priority 1991, dated 1994)
